Source: patent publication US9212178B2, “Substituted pyrimidine compounds and their use as SYK inhibitors” (Genosco, priority 2013, dated 2015)

What was measured:
[1] = system: THP-1 cells; test: SYK-dependent TNF-α release assay (IgG stimulation), ELISA; type: cell-based; settings: THP-1 cells on human IgG-coated plate, 18 hours; read-out: TNF-α release inhibition, IgG stimulation IC50
Method: In order to address cellular potency of Compounds of Formula (I), TNF-a production was measured on treatment of a series of concentration of SYK inhibitor in THP-1 cells.
For SYK-dependent TNF-α release assay (i.e., via IgG stimulation), THP-1 cells derived from human monocytic cells were obtained from the American Type Culture Collection (ATCC, Manassas, Va.). This cell line was maintained with a Roswell Park Memorial Institute (RPMI) medium (GIBCO) containing 10% fetal bovine serum (FBS; GIBCO) and 0.05 mM solution of 2-mercaptoethanol. The THP-1 cells were seeded at 1×10^5 cells/100 μL/well into human IgG (10 ng/well, INVITROGEN)-coated 96 well culture plate, and serially diluted compound was then added. After an 18 hours of incubation period at 37° C., supernatants were collected for the determination of the TNF-α level by enzyme-linked immunosorbent assay (ELISA), and the remaining cells were subjected to an MTT (yellow tetrazolium salt) assay to determine the cytotoxic effects of the compound. The IC50 value of the test compound was calculated at Gradpad Prism 5 unless otherwise specified.

[2] = target: full-length human SYK (Homo sapiens (Human), UniProt P43405); test: Inhibition of enzymatic SYK kinase activity (LANCE Ulight TK peptide); type: biochemical; settings: ATP at Km (15 uM), 30 min pre-incubation
Method: Compounds of the present invention were assayed to measure their capacity to inhibit a spleen tyrosine kinase (SYK).
Compounds of the invention were initially diluted to 10 mM in 100% DMSO (CALBIOCHEM™) for storage and made into kinase buffer solution to create a compound concentration ranging from 1 uM and 10 uM. Serial dilutions of compounds of the invention were dispensed into a 96-well plate (GREINER BIOSCIENCES™) at 6 μL each. Purified full-length human SYK (CARNA BIOSCIENCES™) were diluted in kinase buffer and added to the compound solutions and pre-incubated for 30 minutes at room temperature. […] The reaction mixture was incubated for 1 hour. Following the incubation, the stop solution made with EDTA, water, and Lance detection buffer ([…]™) was added (12 μL each) to stop phosphorylation.

[3] = system: Collagen-induced arthritis in DBA/1J mice; test: Collagen-induced arthritis (CIA) mouse model, macroscopic paw scoring; type: in vivo; settings: 30 mg/kg/day once daily oral gavage, vehicle = 100.0
Method: CIA mouse model was induced in DBA/1J mice (Japan Charles River Breeding Laboratories, Kanagawa, Japan) with 5 to 6 weeks of age. Animals were maintained at a temperature of 20±5° C. and a relative humidity of 40˜60%.
Bovine type II collagen (CII, 2 mg/ml dissolved in 0.05 M acetic acid, Chondrex, Redmond, Wash.) was emulsified in equal volumes of Freund's complete adjuvant (4 mg/ml of Mycobacterium tuberculosis strain H37Ra; Chondrex, Redmond, Wash.). On day 0, mice were immunized intradermally at the base of the tail with 100 μg bovine type II collagen emulsified in Freund's complete adjuvant. On day 21, all mice were boosted with an intraperitoneal injection of 100 μg type II collagen.
These compounds were dissolved in NMP/20% cyclodextrin/PEG400 5:45:50 solution and filtered by […] membrane filter. All the test substances were administered once daily at 30 mg/kg/day by oral gavage for 3 weeks.
The gradual onset of arthritis usually starts approximately 3 weeks after initial immunization. The progression of CIA was evaluated by the macroscopic scoring of paws at intervals of 3 days. The edema and swelling of each paw was scored visually as was described previously, using a scale of 0-4, where 0=no visible abnormalities, 1=mild redness or swelling of the wrist or up to three inflamed digits, 2=more than three inflamed digits or moderate redness and swelling of the ankle or wrist, 3=severe ankle and wrist inflammation, 4=extensive ankle and wrist inflammation including all digits. Therefore, the score of each mouse was calculated for the four limbs (maximum total score of 16 for each mouse) (Courtenay J S, Dallman M J, Dayan A D, et al., Immunisation against heterologous type II collagen induces arthritis in mice, Nature, 1980, 283, 666-668)
Arthritis was considered to be present if the score was >2. The blind scoring was performed by four independent observers. In this study, data was calculated by following equation. […] Results

Compound	IC50 [1]	IC50 [2]	further results
O=C(c1cn(CC(F)F)c2ccc(Nc3nccc(-n4cc(CN5C[C@H](O)CO5)cn4)n3)cc12)C1CC1 [Compound 33, (S)-cyclopropyl(1-(2,2-difluoroethyl)-5-(4-(4-((4-hydroxyisoxazolidin-2-yl)methyl)-1H-pyrazol-1-yl)pyrimidin-2-ylamino)-1H-indol-3-yl)methanone]	0.06 µM	0.00534 µM	–
Cc1nn(-c2ccnc(Nc3ccc4c(c3)c(S(C)(=O)=O)nn4C)n2)cc1CN1C[C@H](O)CO1 [Compound 26, (S)-2-((3-methyl-1-(2-(1-methyl-3-(methylsulfonyl)-1H-indazol-5-ylamino)pyrimidin-4-yl)-1H-pyrazol-4-yl)methyl)isoxazolidin-4-ol]	1.06 µM	0.0871 µM	–
cyclopropyl(1-(2-fluoroethyl)-5-(4-(4-(((S)-4-hydroxyisoxazolidin-2-yl)methyl)-3-methyl-1H-pyrazol-1-yl)pyrimidin-2-ylamino)indolin-3-yl)methanone [Compound 24]	0.047 µM	0.0031 µM	–
CCn1cc(C(=O)C2CC2)c2cc(Nc3nccc(-n4cc(CN5CC(C)(O)CO5)c(C)n4)n3)ccc21 (stereo not drawn) [Compound 13, cyclopropyl(1-ethyl-5-(4-(4-((4-hydroxy-4-methylisoxazolidin-2-yl)methyl)-3-methyl-1H-pyrazol-1-yl)pyrimidin-2-ylamino)-1H-indol-3-yl)methanone]	0.273 µM	0.0173 µM	–
COc1cc(Nc2ncc(F)c(Nc3ccc4c(n3)N(COP(=O)(O)O)C(=O)C(C)(C)O4)n2)cc(OC)c1OC [Compound R788, reference compound]	–	–	CIA index (arthritic score of test group / vehicle group x 100) ([3]; day 4): 36.7 ± 22.7%; CIA index (arthritic score of test group / vehicle group x 100) ([3]; day 7): 82.2 ± 45.2%; CIA index (arthritic score of test group / vehicle group x 100) ([3]; day 10): 80.3 ± 27.3%; CIA index (arthritic score of test group / vehicle group x 100) ([3]; day 13): 97.8 ± 25.0%; CIA index (arthritic score of test group / vehicle group x 100) ([3]; day 17): 73.3 ± 11.2%; CIA index (arthritic score of test group / vehicle group x 100) ([3]; day 19): 72.1 ± 11.2%
Cc1nn(-c2ccnc(Nc3ccc4c(c3)c(C(=O)C3CC3)cn4CCF)n2)cc1CN1C[C@H](O)CO1 [Compound 23, (S)-cyclopropyl(1-(2-fluoroethyl)-5-(4-(4-((4-hydroxyisoxazolidin-2-yl)methyl)-3-methyl-1H-pyrazol-1-yl)pyrimidin-2-ylamino)-1H-indol-3-yl)methanone]	0.111 µM	0.00371 µM	–
Cc1nn(-c2ccnc(Nc3ccc4c(c3)c(C(=O)C3CC3)cn4C)n2)cc1CN1CC(C)(O)CO1 (stereo not drawn) [Compound 14, cyclopropyl(5-(4-(4-((4-hydroxy-4-methylisoxazolidin-2-yl)methyl)-3-methyl-1H-pyrazol-1-yl)pyrimidin-2-ylamino)-1-methyl-1H-indol-3-yl)methanone]	0.789 µM	0.0417 µM	–
O=C(c1cn(CCF)c2ccc(Nc3nccc(-n4cc(CN5C[C@H](O)CO5)cn4)n3)cc12)C1CC1 [Compound 32, (S)-cyclopropyl(1-(2-fluoroethyl)-5-(4-(4-((4-hydroxyisoxazolidin-2-yl)methyl)-1H-pyrazol-1-yl)pyrimidin-2-ylamino)-1H-indol-3-yl)methanone]	0.053 µM	0.00352 µM	–
Cc1cnc(Nc2ccc3c(c2)c(C(=O)C2CC2)cn3C)nc1-n1cc(CN2C[C@H](O)CO2)c(C)n1 [Compound 19, (S)-cyclopropyl(5-(4-(4-((4-hydroxyisoxazolidin-2-yl)methyl)-3-methyl-1H-pyrazol-1-yl)-5-methylpyrimidin-2-ylamino)-1-methyl-1H-indol-3-yl)methanone]	0.821 µM	0.271 µM	–
CCn1cc(C(=O)C2CC2)c2cc(Nc3nccc(-n4cc(CN5C[C@H](O)CO5)c(C)n4)n3)ccc21 [Compound 6, (S)-cyclopropyl(1-ethyl-5-(4-(4-((4-hydroxyisoxazolidin-2-yl)methyl)-3-methyl-1H-pyrazol-1-yl)pyrimidin-2-ylamino)-1H-indol-3-yl)methanone]	0.057 µM	0.00469 µM	CIA index (arthritic score of test group / vehicle group x 100) ([3]; day 4): 0.0 ± 0.0%; CIA index (arthritic score of test group / vehicle group x 100) ([3]; day 7): 10.9 ± 8.9%; CIA index (arthritic score of test group / vehicle group x 100) ([3]; day 10): 32.3 ± 11.5%; CIA index (arthritic score of test group / vehicle group x 100) ([3]; day 13): 45.3 ± 10.5%; CIA index (arthritic score of test group / vehicle group x 100) ([3]; day 17): 53.3 ± 7.4%; CIA index (arthritic score of test group / vehicle group x 100) ([3]; day 19): 63.4 ± 4.0%
CCn1cc(C(=O)C2CC2)c2cc(Nc3nccc(-n4cc(CN5C[C@@H](O)CO5)c(C)n4)n3)ccc21 [Compound 11, (R)-cyclopropyl(1-ethyl-5-(4-(4-((4-hydroxyisoxazolidin-2-yl)methyl)-3-methyl-1H-pyrazol-1-yl)pyrimidin-2-ylamino)-1H-indol-3-yl)methanone]	0.089 µM	0.00628 µM	–
Cc1nn(-c2ccnc(Nc3ccc4[nH]cc(C(=O)C5CC5)c4c3)n2)cc1CN1C[C@H](O)CO1 [Compound 12, (S)-cyclopropyl(5-(4-(4-((4-hydroxyisoxazolidin-2-yl)methyl)-3-methyl-1H-pyrazol-1-yl)pyrimidin-2-ylamino)-1H-indol-3-yl)methanone]	0.12 µM	0.0135 µM	–
Cc1nn(-c2ccnc(Nc3ccc4c(c3)c(C(=O)C3CC3)cn4CC(F)(F)F)n2)cc1CN1C[C@H](O)CO1 [Compound 15, (S)-cyclopropyl(5-(4-(4-((4-hydroxyisoxazolidin-2-yl)methyl)-3-methyl-1H-pyrazol-1-yl)pyrimidin-2-ylamino)-1-(2,2,2-trifluoroethyl)-1H-indol-3-yl)methanone]	0.066 µM	0.00298 µM	–
